Source: patent publication US20070213301A1 (ACHILLION PHARMACEUTICALS, INC., priority 2006, published 2007)

System: HCV replicon
Assay: HCV replicon replication assay (NPTII ELISA)
Type: cell-based, Hepatitis C virus (Huh-7 cells)
Conditions: Hepatitis C virus, Huh-7, 72 h, inhibition of HCV replicon replication in Huh-7 HCV replicon-containing cells, three days incubation, NPT level by ELISA; read-out: EC50
Experimental: Compounds claimed herein are tested for the ability to inhibit viral replication of the Hepatitis C replicon in cultured cells in which the HCV replicon construct has been incorporated. The HCV replicon system was described by Bartenschlager, et. al (Science, 285, pp. 110-113 (1999)). The replicon system is predictive of in vivo anti-HCV activity; compounds that are active in humans uniformly evidence activity in the replicon assay.
In this assay HCV replicon containing cells are treated with different concentrations of the test compound to ascertain the ability of the test compound to suppress replication of the HCV replicon. As a positive control, HCV replicon-containing cells are treated with different concentrations of interferon alpha, a known inhibitor of HCV replication. The replicon assay system includes Neomycin Phosphotransferase (NPT) as a component of the replicon itself in order to detect the transcription of replicon gene products in the host cell. Cells in which the HCV replicon is actively replicating have high levels of NPT; the level of NPT is proportional to HCV replication. […] The NPT level of each sample is measured using a captured ELISA.
The HCV replicon contains, 5′-3′, the HCV-IRES, the neomycin phosphotransferase (neo) gene, the IRES of encephalomyocarditis virus, which directs translation of HCV sequences NS3 to NS5B, and the 3′-NTR. The sequence of the HCV replicon has been deposited in GenBank (Accession no. AJ242652).
The replicon is transfected into Huh-7 cells using standard methods such as electroporation.
The cells are then seeded onto 96-well plates at a density of 6000-7500 cells/100 microliters/well (6-7.5×10^5 cells/10 ml/plate). The plates are then incubated at 37° C. in a 5% CO2 incubator.
HCV replicon-containing cells are rinsed with once PBS once; 2 mls of trypsin are then added. Cells are incubated at 37° C. in a 5% CO2 incubator for 3-5 minutes. 10 mls of complete medium is added to stop the reaction. Cells are blown gently, put into a 15 ml tube, and spun at 1200 rpm for four minutes. The trypsin/medium solution is removed and 5 mls of medium (500 ml DMEM (high glucose)) from BRL catalog #12430-054; 50 mls 10% FBS, 5% Geneticin G418 (50 mg/ml, BRL catalog #10131-035), 5 ml MEM non-essential amino acids (100× BRL #11140-050) and 5 ml pen-strep (BRL #15140-148) is added. The cells and media are mixed carefully
Cells are plated with screening medium (500 ml DMEM (BRL #21063-029), 50 ml FBS (BRL #10082-147) and 5 ml MEM non-essential amino acid (BRL #11140-050) at 6000-7500 cells/100 μl/well of 96 well plate (6-7.5×10^5 cells/10 ml/plate). Plates are placed into 37° C. 5% CO2 incubator overnight.
The following morning, drugs (test compounds or interferon alpha) are diluted in 96 well U bottom plates with media or DMSO/media, depending on the final concentration chosen for screening. Generally for 6 concentrations of each test compounds ranging from 10 micromolar to 0.03 micromolar are applied. 100 μl of the test compound dilution is placed in wells of the 96 well plate containing the HCV replicon cells. Media without drug is added to some wells as a negative controls. DMSO is known to affect cell growth. Therefore, if drugs diluted in DMSO are used, all wells, including negative control (media only) and positive control (interferon alpha) wells, must contain the same concentration of DMSO, for single dose screening. The plates are incubated at 37° C. in a humidified 5% CO2 environment for three days.
On day four, the NTPII assay is quantitated. The medium is poured from the plates and the plates are washed once in 200 μl of PBS. The PBS is then decanted and the plates tapped in a paper towel to remove any remaining PBS. Cells are fixed in situ with 100 μl/well of pre-cooled (−20° C.) methanol:acetone (1:1) and the plates are placed at −20° C. for 30 minutes.
The fixing solution is poured from the plates and the plates allowed to air-dry completely (approximately one hour). […]

Q: How did the EC50 turn out when `CCCCCOc1ccc(N(CCN(C)C)c2nc(-c3cccnc3)cs2)cc1C(F)(F)F` [Compound 11, N1,N1-dimethyl-N2-(4-(pentyloxy)-3-(trifluoromethyl)phenyl)-N2-(4-(pyridin-3-yl)thiazol-2-yl)ethane-1,2-diamine] was run?
A: 1000 to 10000 nM

Q: With `CCCCCCCCOc1ccc(N(C(=O)CCC(=O)O)c2nc(-c3cccnc3)cs2)cc1C(F)(F)F` [Compound 161, 4-((4-(octyloxy)-3-(trifluoromethyl)phenyl)(4-(pyridin-3-yl)thiazol-2-yl)amino)-4-oxobutanoic acid] as the molecule, how does the EC50 read?
A: < 1000 nM

Q: How did the EC50 turn out when `CCCCCOc1ccc(N(C(C)=O)c2nc(-c3cccnc3)cs2)cc1C(F)(F)F` [Compound 12, N-(4-(pentyloxy)-3-(trifluoromethyl)phenyl)-N-(4-(pyridin-3-yl)thiazol-2-yl)acetamide] was run?
A: < 1000 nM

Q: With `CCCCCCCCc1ccc(N(C(=O)OCCOP(=O)(O)O)c2nc(-c3cccnc3)c(F)s2)cc1C(F)(F)F` [Compound 183, 2-(phosphonooxy)ethyl 5-fluoro-4-(pyridin-3-yl)thiazol-2-yl(4-octyl-3-(trifluoromethyl)phenyl)carbamate] as the molecule, how does the EC50 read?
A: < 1000 nM

Q: `CCCCCCOc1ccc(N(C(N)=O)c2nc(-c3ccncc3)cs2)cc1` [Compound 146, 1-(4-(hexyloxy)phenyl)-1-(4-(pyridin-4-yl)thiazol-2-yl)urea] was tested. Which EC50 did it give?
A: 1000 to 10000 nM

Q: For `CCCCCCOc1ccc(N(C(N)=O)c2nc(-c3ccc4c(c3)NC(=O)CO4)cs2)cc1` [Compound 121, 1-(4-(hexyloxy)phenyl)-1-(4-(3-oxo-3,4-dihydro-2H-benzo[b][1,4]oxazin-6-yl)thiazol-2-yl)urea], which EC50 is on record?
A: 1000 to 10000 nM

Q: With `CCCCCOc1ccc(N(C(N)=O)c2nc(-c3ccc(O)c(C(N)=O)c3)cs2)cc1F` [Compound 109, 5-(2-(1-(3-fluoro-4-(pentyloxy)phenyl)ureido)thiazol-4-yl)-2-hydroxybenzamide] as the molecule, how does the EC50 read?
A: 1000 to 10000 nM

Q: For `CCCCCOc1ccc(N(C(=O)C(=O)OC)c2nc(-c3cccnc3)cs2)cc1C(F)(F)F` [Compound 28, methyl 2-oxo-2-((4-(pentyloxy)-3-(trifluoromethyl)phenyl)(4-(pyridin-3-yl)thiazol-2-yl)amino)acetate], which EC50 is on record?
A: < 1000 nM

Q: How did the EC50 turn out when `CCCCCOc1ccc(N(C(=O)CN(C)C)c2nc(-c3cccnc3)cs2)cc1C(F)(F)F` [Compound 41, 2-(dimethylamino)-N-(4-(pentyloxy)-3-(trifluoromethyl)phenyl)-N-(4-(pyridin-3-yl)thiazol-2-yl)acetamide] was run?
A: < 1000 nM

Q: How did the EC50 turn out when `CCCCCOc1ccc(N(C(C)=O)c2nc(CNC(C)=O)cs2)cc1C(F)(F)F` [Compound 29, N-(4-(acetamidomethyl)thiazol-2-yl)-N-(4-(pentyloxy)-3-(trifluoromethyl)phenyl)acetamide] was run?
A: 1000 to 10000 nM

Q: `NCCN(c1ccc(OCCCCc2cccs2)c(C(F)(F)F)c1)c1nc(-c2cccnc2)c(F)s1` [Compound 193, N1-(5-fluoro-4-(pyridin-3-yl)thiazol-2-yl)-N1-(4-(4-(thiophen-2-yl)butoxy)-3-(trifluoromethyl)phenyl)ethane-1,2-diamine] was tested. Which EC50 did it give?
A: 1000 to 10000 nM

Q: How did the EC50 turn out when `CCCCCCCOc1ccc(N(C(=O)c2cc(C)on2)c2nc(-c3nc4ccccc4s3)cs2)cc1` [Compound 92, N-(4-(benzo[d]thiazol-2-yl)thiazol-2-yl)-N-(4-(heptyloxy)phenyl)-5-methylisoxazole-3-carboxamide] was run?
A: 1000 to 10000 nM

Q: How did the EC50 turn out when `CCCCCCCOc1ccc(N(C(=O)C2CCCCC2)c2nc(-c3ccccn3)cs2)cc1` [Compound 95, N-(4-(heptyloxy)phenyl)-N-(4-(pyridin-2-yl)thiazol-2-yl)cyclohexanecarboxamide] was run?
A: 1000 to 10000 nM

Q: With `CCCCCCCCc1ccc(N(C(=O)CN(C)C)c2nc(-c3cccnc3)c(F)s2)cc1C(F)(F)F` [Compound 170, 2-(dimethylamino)-N-(5-fluoro-4-(pyridin-3-yl)thiazol-2-yl)-N-(4-octyl-3-(trifluoromethyl)phenyl)acetamide] as the molecule, how does the EC50 read?
A: < 1000 nM

Q: With `CCCCCCOc1ccc(N(C(N)=O)c2nc(-c3ccc(F)c(F)c3)cs2)cc1` [Compound 124, 1-(4-(3,4-difluorophenyl)thiazol-2-yl)-1-(4-(hexyloxy)phenyl)urea] as the molecule, how does the EC50 read?
A: < 1000 nM

Q: With `CCCCCCCOc1ccc(N(C(=O)c2cc(C)on2)c2nc(-c3ccc(Cl)s3)cs2)cc1` [Compound 91, N-(4-(5-chlorothiophen-2-yl)thiazol-2-yl)-N-(4-(heptyloxy)phenyl)-5-methylisoxazole-3-carboxamide] as the molecule, how does the EC50 read?
A: < 1000 nM

Q: For `CCCCOc1ccc(N(C(N)=O)c2nc(-c3ccc(F)cc3)cs2)cc1C(F)(F)F` [Compound 135, 1-(4-butoxy-3-(trifluoromethyl)phenyl)-1-(4-(4-fluorophenyl)thiazol-2-yl)urea], which EC50 is on record?
A: < 1000 nM

Q: Which EC50 does the source give for `CCCCCCCCOc1ccc(N(C(=O)C(N)=O)c2nc(-c3cccnc3)cs2)cc1C(F)(F)F` [Compound 131, N1-(4-(octyloxy)-3-(trifluoromethyl)phenyl)-N1-(4-(pyridin-3-yl)thiazol-2-yl)oxalamide] here?
A: < 1000 nM

Q: `CCCCCOc1ccc(N(C(=O)c2cccnc2)c2nc(-c3nc4ccccc4s3)cs2)cc1C(F)(F)F` [Compound 102, N-(4-(benzo[d]thiazol-2-yl)thiazol-2-yl)-N-(4-(pentyloxy)-3-(trifluoromethyl)phenyl)nicotinamide] was tested. Which EC50 did it give?
A: < 1000 nM

Q: For `CCCCCCCCc1ccc(N(C(=O)[C@@H](N)C(C)C)c2nc(-c3ccc(O)nc3)cs2)cc1C(F)(F)F` [Compound 157, (S)-2-amino-N-(4-(6-hydroxypyridin-3-yl)thiazol-2-yl)-3-methyl-N-(4-octyl-3-(trifluoromethyl)phenyl)butanamide], which EC50 is on record?
A: 1000 to 10000 nM

Q: `CCCCCOc1ccc(N(C(N)=O)c2nc(-c3cccnc3)cs2)cc1F` [Compound 87, 1-(3-fluoro-4-(pentyloxy)phenyl)-1-(4-(pyridin-3-yl)thiazol-2-yl)urea] was tested. Which EC50 did it give?
A: < 1000 nM

Q: For `NC(=O)N(c1ccc(F)c(C(F)(F)F)c1)c1nc(-c2cccnc2)cs1` [Compound 83, 1-(4-fluoro-3-(trifluoromethyl)phenyl)-1-(4-(pyridin-3-yl)thiazol-2-yl)urea], which EC50 is on record?
A: < 1000 nM

Q: With `C/C=N/N(c1ccc(OCCCCCCCC)c(C(F)(F)F)c1)c1nc(-c2cccnc2)cs1` [Compound 189, (E)-2-(2-ethylidene-1-(4-(octyloxy)-3-(trifluoromethyl)phenyl)hydrazinyl)-4-(pyridin-3-yl)thiazolo] as the molecule, how does the EC50 read?
A: < 1000 nM

Q: For `NC(=O)N(c1ccc(OCC2CCCCC2)c(F)c1)c1nc(-c2ccncc2)cs1` [Compound 142, 1-(4-(cyclohexylmethoxy)-3-fluorophenyl)-1-(4-(pyridin-4-yl)thiazol-2-yl)urea], which EC50 is on record?
A: 1000 to 10000 nM

Q: How did the EC50 turn out when `CCCCCOc1ccc(N(C(=O)COC(C)=O)c2nc(-c3cccnc3)cs2)cc1C(F)(F)F` [Compound 33, 2-oxo-2-((4-(pentyloxy)-3-(trifluoromethyl)phenyl)(4-(pyridin-3-yl)thiazol-2-yl)amino)ethyl acetate] was run?
A: < 1000 nM

Q: With `CCCCCOc1ccc(N(C(=O)C(=O)OC)c2nc(-c3ccc(F)cc3F)cs2)cc1C(F)(F)F` [Compound 37, methyl 2-((4-(2,4-difluorophenyl)thiazol-2-yl)(4-(pentyloxy)-3-(trifluoromethyl)phenyl)amino)-2-oxoacetate] as the molecule, how does the EC50 read?
A: < 1000 nM

Q: How did the EC50 turn out when `CC(C)COc1ccc(N(C(N)=O)c2nc(-c3ccc(F)c(F)c3)cs2)cc1C(F)(F)F` [Compound 126, 1-(4-(3,4-difluorophenyl)thiazol-2-yl)-1-(4-isobutoxy-3-(trifluoromethyl)phenyl)urea] was run?
A: < 1000 nM
